From PubChem BioAssay AID296 (DTP/NCI, 2004)
Where “and” joins values, the source holds several entries; their conditions need not be identical. Equal entries are not always repeated. Inconclusive results are not listed.

System: MX-1 breast xenograft, nude mice, tumor weight T/C
Assay: NCI In Vivo Anticancer Drug Screen. Data for tumor model Human Mammary Carcinoma MX-1 Xenograft (intrarenal inoculation) in NU/NU Swiss (nude) mice
Conditions: endpoint: mean tumor weight change, higher = larger tumour
Description: The antitumor activity of compounds was measured in mice bearing transplantable tumors. Survival or tumor size were measured and the results are expressed as the measurement made in the treated group (T) divided by the measurement made in the vehicle treated control group (C). The tumor model used in this assay is Human Mammary Carcinoma MX-1 Xenograft (intrarenal inoculation) in NU/NU Swiss (nude) mice

[1] = dose: 18.75 mg/kg/injection, schedule: Q04DX003 (sc), vehicle: Klucel (hydroxypropylcellulose) (HPC)
[2] = dose: 300.0 mg/kg/injection, schedule: Q04DX003 (sc), vehicle: Klucel (hydroxypropylcellulose) (HPC)
[3] = dose: 2400.0 mg/kg/injection, schedule: Q04DX003 (sc), vehicle: Klucel (hydroxypropylcellulose) (HPC)
[4] = dose: 150.0 mg/kg/injection, schedule: Q04DX003 (sc), vehicle: saline
[5] = dose: 100.0 mg/kg/injection, schedule: Q04DX003 (sc), vehicle: saline with Tween-80
[6] = dose: 600.0 mg/kg/injection, schedule: Q04DX003 (sc), vehicle: Klucel (hydroxypropylcellulose) (HPC)
[7] = dose: 1200.0 mg/kg/injection, schedule: Q04DX003 (sc), vehicle: Klucel (hydroxypropylcellulose) (HPC)
[8] = dose: 50.0 mg/kg/injection, schedule: Q01DX010 (sc), vehicle: saline
[9] = dose: 100.0 mg/kg/injection, schedule: Q01DX010 (sc), vehicle: saline

`O=C1C(NCCO)=C(N2CC2)C(=O)C(NCCO)=C1N1CC1` was tested, and the T/C (dose: 0.5 mg/kg/injection, schedule: Q04DX003 (ip), vehicle: saline) was 69 % of control, the T/C (dose: 0.75 mg/kg/injection, schedule: Q04DX003 (sc), vehicle: saline) was 64 % of control and the T/C (dose: 1.0 mg/kg/injection, schedule: Q04DX003 (ip), vehicle: saline) was 50 % of control. For the same compound, the T/C (dose: 1.5 mg/kg/injection, schedule: Q04DX003 (sc), vehicle: saline) was 37 % of control, the T/C (dose: 2.0 mg/kg/injection, schedule: Q04DX003 (ip), vehicle: saline) was 29 % of control and the T/C (dose: 2.0 mg/kg/injection, schedule: Q04DX003 (sc), vehicle: saline) was 66 % of control. For the same compound, the T/C (dose: 3.0 mg/kg/injection, schedule: Q04DX003 (sc), vehicle: saline) was 9 % of control, the T/C (dose: 4.0 mg/kg/injection, schedule: Q04DX003 (ip), vehicle: saline) was 8 % of control and the T/C (dose: 8.0 mg/kg/injection, schedule: Q04DX003 (sc), vehicle: saline) was -90 % of control.

`O=[N+]([O-])c1ccc([I+]c2ccccc2)cc1` was tested, and the T/C (dose: 75.0 mg/kg/injection, schedule: Q04DX003 (ip), vehicle: Klucel (hydroxypropylcellulose) (HPC)) was 92 % of control.

For `Cc1cc2c(c3oc(C4(C)OC4C4OC4C)cc(=O)c13)C(=O)c1c(O)c(C3CC(C)(N(C)C)C(O)C(C)O3)cc(C3CC(N(C)C)C(O)C(C)O3)c1C2=O` (stereo not given), the T/C (dose: 0.05 mg/kg/injection, schedule: Q04DX003 (sc), vehicle: saline) was 77 % of control and the T/C (dose: 0.1 mg/kg/injection, schedule: Q04DX003 (sc), vehicle: saline) was 30 % of control.

For `Cc1c2ccc3ccccc3c2c[n+]2ccccc12`, the T/C (dose: 9.38 mg/kg/injection, schedule: Q04DX003 (sc), vehicle: Klucel (hydroxypropylcellulose) (HPC)) was 75 % of control and the T/C [1] was 77 % of control.

`N#CCCN(C(=S)Nc1cccc(C(F)(F)F)c1)C1CCCCC1` was tested, and the T/C [2] was 89 % of control and the T/C [3] was 106 % of control.

For `CCC(C(=O)O)C(=O)O.[NH2-].[NH2-].[Pt+2]`, the T/C (dose: 75.0 mg/kg/injection, schedule: Q04DX003 (sc), vehicle: saline) was -95 % of control, the T/C [4] was -82 % of control and the T/C (dose: 300.0 mg/kg/injection, schedule: Q04DX003 (sc), vehicle: saline) was -99 % of control.

For `CN(C(=S)S(=O)(=O)C12CC3CC(CC(C3)C1)C2)c1ccccc1`, the T/C (dose: 800.0 mg/kg/injection, schedule: Q04DX003 (sc), vehicle: Klucel (hydroxypropylcellulose) (HPC)) was 204 % of control.

`Clc1ccc2nnnn2n1` was tested, and the T/C [5] was 173 % of control and the T/C (dose: 200.0 mg/kg/injection, schedule: Q04DX003 (sc), vehicle: saline with Tween-80) was 95 % of control.

With `CCCCCC[Se][Se]CCCCCC` the T/C (dose: 75.0 mg/kg/injection, schedule: Q04DX003 (sc), vehicle: Klucel (hydroxypropylcellulose) (HPC)) was 98 % of control, the T/C (dose: 150.0 mg/kg/injection, schedule: Q04DX003 (sc), vehicle: Klucel (hydroxypropylcellulose) (HPC)) was 80 % of control and the T/C [2] was 102 % of control and 114 % of control.

With `O=c1ssc(=Nc2ccccc2)n1-c1ccccc1` the T/C [2] was 65 % of control, the T/C [6] was 95 % of control and the T/C [7] was 112 % of control. For the same compound, the T/C [3] was 106 % of control.

In the case of `CC(C)(C)c1ccc(CN2CCN(C(c3ccccc3)c3ccc(Cl)cc3)CC2)cc1` (stereo not given), the T/C (dose: 4.5 mg/kg/injection, schedule: Q01DX010 (sc), vehicle: Klucel (hydroxypropylcellulose) (HPC)) is reported as 96 % of control, the T/C (dose: 9.0 mg/kg/injection, schedule: Q01DX010 (sc), vehicle: Klucel (hydroxypropylcellulose) (HPC)) is reported as 101 % of control and the T/C (dose: 18.0 mg/kg/injection, schedule: Q01DX010 (sc), vehicle: Klucel (hydroxypropylcellulose) (HPC)) is reported as 117 % of control. For the same compound, the T/C (dose: 36.0 mg/kg/injection, schedule: Q01DX010 (sc), vehicle: Klucel (hydroxypropylcellulose) (HPC)) was 101 % of control, the T/C [2] was 102 % of control and the T/C [6] was 106 % of control. The T/C [7] was 100 % of control.

For `CCCCN(CCCC)C(Cl)=Nc1ccccc1`, the T/C (dose: 800.0 mg/kg/injection, schedule: Q04DX003 (sc), vehicle: other) was 89 % of control and the T/C (dose: 1600.0 mg/kg/injection, schedule: Q04DX003 (sc), vehicle: other) was 124 % of control.

In the case of `O=C1C=CN(C2OC(CO)C(O)C2O)C(=O)C1` (stereo not given), the T/C [8] is reported as 92 % of control, the T/C [9] is reported as 41 % of control and the T/C (dose: 200.0 mg/kg/injection, schedule: Q01DX010 (sc), vehicle: saline) is reported as 27 % of control. For the same compound, the T/C (dose: 400.0 mg/kg/injection, schedule: Q01DX010 (sc), vehicle: saline) was 75 % of control.

For `O=C1NCC(Br)C(=O)N1` (stereo not given), the T/C (dose: 150.0 mg/kg/injection, schedule: Q04DX003 (sc), vehicle: saline with Tween-80) was 100 % of control.

For `COc1c(O)c2c(c3cc(C(=O)N4CCc5c4c(O)c(OC)c4[nH]c(C(=O)N6CC7CC78C6=CC(=O)c6[nH]cc(C)c68)cc54)[nH]c13)CCN2C(N)=O` (stereo not given), the T/C (dose: 2.5 mg/kg/injection, schedule: Q01DX010 (sc), vehicle: DMSO) was 37 % of control, the T/C (dose: 5.0 mg/kg/injection, schedule: Q01DX010 (sc), vehicle: DMSO) was 82 % of control and the T/C (dose: 10.0 mg/kg/injection, schedule: Q01DX010 (sc), vehicle: DMSO) was 1 % of control. For the same compound, the T/C (dose: 6.25 micrograms/kg/injection, schedule: Q01DX010 (sc), vehicle: DMSO) was 63 % of control, the T/C (dose: 12.5 micrograms/kg/injection, schedule: Q01DX010 (sc), vehicle: DMSO) was 53 % of control and the T/C (dose: 25.0 micrograms/kg/injection, schedule: Q01DX010 (sc), vehicle: DMSO) was 68 % of control. For the same compound, the T/C (dose: 50.0 micrograms/kg/injection, schedule: Q01DX010 (sc), vehicle: DMSO) was 90 % of control, the T/C (dose: 100.0 micrograms/kg/injection, schedule: Q01DX010 (sc), vehicle: DMSO) was 85 % of control and the T/C (dose: 400.0 micrograms/kg/injection, schedule: Q01DX010 (sc), vehicle: DMSO) was 117 % of control.

`C=CS(C=C)=NS(=O)(=O)c1ccc(C)cc1` was tested, and the T/C [1] was 64 % of control and the T/C (dose: 37.5 mg/kg/injection, schedule: Q04DX003 (sc), vehicle: Klucel (hydroxypropylcellulose) (HPC)) was 87 % of control.

For `C=C(C)C(=NC(C)(C)C)Nc1ccccc1`, the T/C [5] was 101 % of control.

In the case of `Cc1cn(C2CC(F)C(CO)O2)c(=O)[nH]c1=O` (stereo not given), the T/C (dose: 150.0 mg/kg/injection, schedule: Q04DX003 (sc), vehicle: suspension in saline) is reported as 56 % of control, the T/C (dose: 300.0 mg/kg/injection, schedule: Q04DX003 (sc), vehicle: suspension in saline) is reported as 105 % of control and the T/C (dose: 600.0 mg/kg/injection, schedule: Q04DX003 (sc), vehicle: suspension in saline) is reported as 111 % of control. The T/C (dose: 1200.0 mg/kg/injection, schedule: Q04DX003 (sc), vehicle: suspension in saline) was 93 % of control.

In the case of `CC1CN1P1(N2CC2C)=NP(N2CC2C)(N2CC2C)=NP(N2CC2C)(N2CC2C)=N1` (stereo not given), the T/C (dose: 18.75 mg/kg/injection, schedule: Q01DX010 (sc), vehicle: saline) is reported as 70 % of control, the T/C (dose: 25.0 mg/kg/injection, schedule: Q01DX010 (sc), vehicle: saline) is reported as 50 % of control and the T/C (dose: 37.5 mg/kg/injection, schedule: Q01DX010 (sc), vehicle: saline) is reported as 41 % of control. The T/C [8] was 26 % of control, the T/C (dose: 75.0 mg/kg/injection, schedule: Q01DX010 (sc), vehicle: saline) was 4 % of control and the T/C [9] was -7 % of control. The T/C [4] was 13 % of control.

With `COc1cc(C)c(C2NC(=O)c3ccccc3N2)cc1C` (stereo not given) the T/C [2] was 53 % of control, the T/C [6] was 115 % of control and the T/C [7] was 93 % of control. The T/C [3] was 90 % of control.

For `S=c1nc[nH]c2nc[nH]c12`, the T/C (dose: 5.25 mg/kg/injection, schedule: Q01DX010 (sc), vehicle: Klucel (hydroxypropylcellulose) (HPC)) was 118 % of control and the T/C (dose: 12.5 mg/kg/injection, schedule: Q01DX010 (sc), vehicle: Klucel (hydroxypropylcellulose) (HPC)) was 72 % of control and 79 % of control.

In the case of `CCN1/C(=C/C=C/C=C/c2sc3ccccc3[n+]2CC)Sc2ccccc21`, the T/C (dose: 1.5 mg/kg/injection, schedule: Q04DX003 (sc), vehicle: suspension in saline) is reported as 56 % of control, the T/C (dose: 3.0 mg/kg/injection, schedule: Q04DX003 (sc), vehicle: suspension in saline) is reported as 35 % of control and the T/C (dose: 6.0 mg/kg/injection, schedule: Q04DX003 (sc), vehicle: suspension in saline) is reported as 71 % of control.

`CCOC(=O)/N=[N+](\[O-])c1ccccc1` was tested, and the T/C (dose: 37.5 mg/kg/injection, schedule: Q04DX003 (ip), vehicle: saline with Tween-80) was 110 % of control.

In the case of `COc1ccc2cc1Oc1ccc(cc1)C[C@H]1c3cc(c(OC)cc3CCN1C)Oc1c(OC)c(OC)cc3c1[C@H](C2)N(C)CC3`, the T/C (dose: 100.0 mg/kg/injection, schedule: Q01DX010 (sc), vehicle: saline with Tween-80) is reported as 115 % of control, the T/C (dose: 200.0 mg/kg/injection, schedule: Q01DX010 (sc), vehicle: saline with Tween-80) is reported as 42 % of control and the T/C (dose: 400.0 mg/kg/injection, schedule: Q01DX010 (sc), vehicle: saline with Tween-80) is reported as 83 % of control. The T/C (dose: 800.0 mg/kg/injection, schedule: Q01DX010 (sc), vehicle: saline with Tween-80) was 44 % of control.
